# Measurements from PubChem BioAssay AID624258 (Broad Institute, 2012).
# Activity calls are given as the source filed them. The rule behind the calls is not given here.
# Test: SKN7 mediated toxicity in Saccharomyces cerevisiae, growth rescue counterscreen, dose confirmation (AID 624258);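 note: growth read after three days of incubation at 30 °C; 0% = median of neutral control wells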
# Details: S. cerevisiae SKN7-toxicity growth rescue, plate reader; at 2.1 µM (top of the series)
row,SMILES,growth rescue activity
1,CCc1ccc(C(C)NC(=S)NC2CCCCC2)cc1 (stereo not given),-19.4% (inactive)

# Same assay, conditions: S. cerevisiae SKN7-toxicity growth rescue, plate reader; at 6.8 µM (top of the series)
row,SMILES,growth rescue activity
1,CC(C)(C)n1nc(Cc2cccc3ccccc23)c2c(N)ncnc21,-49.1% (inactive)

# Same assay, conditions: S. cerevisiae SKN7-toxicity growth rescue, plate reader; at 19.5 µM (top of the series)
row,SMILES,growth rescue activity
1,CC(C)N1CCN(c2ccc(OCC3COC(Cn4cncn4)(c4ccc(Cl)cc4Cl)O3)cc2)CC1 (stereo not given),-56.9% (inactive)
2,CC(C)CNC(=O)COC(=O)c1ccc([N+](=O)[O-])cc1Cl,3.79% (inactive)
3,Cc1[nH]n(C(N)=S)c(=O)c1N=Nc1ccc2ccccc2c1,-41.4% (inactive)
4,O=Cc1ccc(O)c2ncccc12,-72% (inactive)
5,C=CCOCCN(C)C1=NS(=O)(=O)c2cc([N+](=O)[O-])ccc21,-14.3% (inactive)
6,CC(C)=CCc1c(O)ccc(C(=O)Cc2ccccc2)c1O,-92.2% (inactive)
7,O=CC1=C(c2ccccc2)Oc2ccccc2O1,-88.1% (inactive)
8,Cc1nc(Sc2ccccc2)c(C#N)c(C)c1[N+](=O)[O-],147% (inactive)
9,Nc1cc([N+](=O)[O-])ccc1O,-8.46% (inactive)
10,CCC(=O)NC(c1ccco1)c1cc(Cl)c2cccnc2c1O (stereo not given),-49.4% (inactive)
11,COc1ccccc1-c1sc2cc3c(cc2c1C#Cc1cncn1C)OCO3,-72% (inactive)
12,CCCOc1ccc2ccccc2c1/C=C1\SC(=O)NC1=O,-39.3% (inactive)
13,N#Cc1cc2c(nc1SCc1ccccc1)CCCC2=O,-24.7% (inactive)
14,N#Cc1c(N)nc(SCc2ccccc2)c(C#N)c1-c1ccco1,-27.7% (inactive)
15,CCOC(=O)C1CCCN(C(=O)c2cc(-c3ccc(C)cc3)nc3ccccc23)C1 (stereo not given),25.9% (inactive)
16,Cc1cc(NS(=O)(=O)c2ccc(C3CCCCC3)cc2)no1,-38.7% (inactive)
17,COc1cc2cnc(-c3ccccc3)c(C(=O)c3ccc(F)cc3)c2cc1OC,2.41% (inactive)
18,O=C(NCc1ccccc1)c1ccc2nccnc2c1,17.6% (inactive)
19,CCOC(=O)CN1C(=O)C2Cc3ccccc3CN2C1=S (stereo not given),41.4% (inactive)
20,c1ccc(CSc2ccc(-c3ccccn3)nn2)nc1,-28% (inactive)
21,CC(C)(C)c1ccc(C(=O)NC(=S)NNC(=O)c2cccs2)cc1,-72.5% (inactive)
22,Cc1ccc(-n2nnnc2SCC(=O)N2CCc3ccccc3C2)c(C)c1,-18.8% (inactive)
23,Cc1ccc(-n2ncc(Br)c(Br)c2=O)cc1,23.6% (inactive)
24,COc1ccc2[nH]c(=O)c(CN(Cc3cccnc3)C(=O)Nc3ccccc3)cc2c1,-61.1% (inactive)

row,SMILES,growth rescue activity
1,O=C(CCl)NCCCCCCCCCNC(=O)CCl,8.47% (inactive)
2,CC1(OC(=O)CCc2ccccc2)C(=O)C=C2C=C(c3ccc(C#N)cc3)N(Cc3ccco3)C=C2C1=O (stereo not given),3.67% (inactive)
3,COc1cc([N+](=O)[O-])cc(/C=N/NC(=O)c2cncc(Br)c2)c1O,-13.3% (inactive)
4,CCOc1cc([N+](=O)[O-])cc(/C=N/NC(=O)c2c(-c3ccccc3)noc2C)c1O,0.098% (inactive)
5,CCCCCC1CCC(c2ccc(/C(N)=N/O)cc2)CC1 (stereo not given),-61.8% (inactive)
6,Cc1ccc(C)c(/C=C/C(=O)c2ccccc(=O)c2O)c1,-77% (inactive)
7,O=C(c1ccccc1)c1ccc(Cn2cc(-c3ccccc3)nn2)cc1,19.2% (inactive)
8,Cc1ccc(Sc2ccc(NC(=O)CCl)cc2)cc1C,-34.2% (inactive)
9,CN(Cc1ccc(Cl)s1)C(=O)CCl,19.3% (inactive)
10,O=C(COc1ccc([N+](=O)[O-])cc1)Nc1nc(-c2ccccn2)cs1,-63.6% (inactive)
11,CN(C)S(=O)(=O)Oc1cccc(C(=O)Nc2ccc(Cl)cc2)c1,-19.4% (inactive)
12,Cc1c(C2(O)CCCCC2)[nH]c2ccc(C(F)(F)F)cc12,-43.8% (inactive)
13,CNc1cc(CSC)nc(SCc2ccc(Cl)cc2Cl)n1,-57.8% (inactive)
14,COC(=O)c1cccc2c1-c1ccccc1/C2=N/O,30.5% (inactive)
15,CN1C(=S)SC(N(O)C(=O)Nc2cccc3ccccc23)C1(C)C (stereo not given),0.395% (inactive)
16,O=C(Oc1c(-c2ccccc2)c(=O)n2c3c(cccc13)CC2)c1cccc([N+](=O)[O-])c1,-37.6% (inactive)
17,O/N=C/c1cc(Br)ccc1OCc1ccccc1F,-57.4% (inactive)
18,CC(C)(C)OC(=O)N1CCC(c2cc(-c3cccs3)n[nH]2)CC1,-58.6% (inactive)
19,CN(Cc1cccc(F)c1)C(=O)c1ccc(S(=O)(=O)N2CCCCCC2)cc1,-8.45% (inactive)
20,Cc1cccc(Oc2nc(-c3ccccn3)nc3ccccc23)c1,-67.8% (inactive)
21,CC(=O)N1CC[n+]2c(-c3ccc(Cl)cc3)csc21,-24.8% (inactive)
22,CC(=O)Nc1cccc(NC(=O)CSc2ccc(-c3ccccn3)nn2)c1,-39.9% (inactive)
23,O=C(CC1CC2CCC1C2)Nc1nc(-c2ccccn2)cs1 (stereo not given),-53.4% (inactive)
24,CCN(CC)c1ccc(/C=C/c2ccc3ccc(OC)cc3[n+]2CC)cc1,-52.7% (inactive)

row,SMILES,growth rescue activity
1,Cc1cc(Cl)ccc1C(=O)C1CCCN(C(=O)c2cncs2)C1 (stereo not given),-54.3% (inactive)
2,COC(=O)C1=NN(C(=O)c2cccc(Br)c2)C(O)(c2ccc(Cl)cc2)C1 (stereo not given),-17.5% (inactive)
3,CN(C)c1nc(-c2ccccn2)nnc1-c1ccccc1,-23.6% (inactive)
4,N#Cc1c(-c2ccccc2)nc2n(c1=O)CCS2,27.6% (inactive)
5,CCOC(=O)c1ccc(N2C(=O)CC(N3CCC(O)(c4ccc(Cl)cc4)CC3)C2=O)cc1 (stereo not given),-16.1% (inactive)
6,N#Cc1c(-c2ccc(Cl)cc2)nc2n(c1=O)CCCS2,35.4% (inactive)
7,CN(C)c1nc(SCc2ccc(Cl)cc2)nc2c1CCCC2,-65.9% (inactive)
8,CCCc1c(C)nn(C(=O)/C(C#N)=N/Nc2ccccc2[N+](=O)[O-])c1C,-8.75% (inactive)
9,O=C(Nc1nc(-c2ccccc2)c(-c2ccccc2)o1)c1ccc(F)cc1,-15.6% (inactive)
10,CCOc1ccc(S(=O)(=O)n2cc(F)c(=O)[nH]c2=O)cc1,-4.21% (inactive)
11,CCc1sc(C(=O)Nc2nc(-c3ccccn3)cs2)cc1C,-81% (inactive)
12,COC(=O)COC(=O)c1ccccc1NC(=O)c1ccccc1,-40.9% (inactive)
13,O/N=C/c1ccccc1OCc1ccc(Cl)cc1,10.8% (inactive)
14,CN(C(=O)COC(=O)c1ccc([N+](=O)[O-])cc1Cl)C1CCCCC1,139% (inactive)
15,Cc1cc(O)c(-c2cc(O)c(C)cc2O)cc1O,-8.5% (inactive)
16,Oc1c(Cl)c(Cl)c(Cl)c(Cl)c1Cl,-82.9% (inactive)
17,Cn1cc(SCC(=O)Nc2nc3ccccc3s2)c2ccccc21,-62.4% (inactive)
18,CCN(CC)C(=O)CSc1ncnc2sc(-c3ccccc3)cc12,-25.1% (inactive)
19,CCc1ccc(S(=O)(=O)N(C(=O)c2ccncc2)c2ccc(OC(=O)c3ccncc3)cc2)cc1,-42.7% (inactive)
20,Oc1c(C(Nc2ccccn2)c2ccccn2)ccc2cccnc12 (stereo not given),-61.4% (inactive)
21,CCOc1ccc(S(=O)(=O)Nc2cc(SCC(=O)O)c(O)c3ccccc23)cc1,21.7% (inactive)
22,O=C(NCc1ccncc1)c1ccccc1Nc1ccc(SC(F)F)cc1,-49.8% (inactive)
23,O=[N+]([O-])c1ccc2c(OCc3nnc(-c4ccccc4Br)o3)ncnc2c1,7.4% (inactive)
24,CC(=O)NC(=S)NNC(=O)C(c1ccccc1)c1ccccc1,-30.2% (inactive)

row,SMILES,growth rescue activity
1,CC1(C)C=Cc2c(ccc3c2OC[C@@H](c2ccc(O)cc2O)C3)O1,-92.6% (inactive)
2,O=C(O)/C(=C\c1ccc(F)cc1)c1ccc(-c2ccccc2)cc1,-66.8% (inactive)
3,CC1=C(C)C(=O)C(CCCCC#CCCCC#CCO)=C(C)C1=O,-34.8% (inactive)
4,Clc1ccc(C2=NCCN2)cc1,-65.4% (inactive)
5,O=S(=O)(c1ccc(Cl)cc1)N1CCC2(CC1)OCCN2S(=O)(=O)c1cccs1,-46.5% (inactive)
6,CN(C)CCCNC(=O)c1ccc(-c2nc(-c3ccc(Cl)cc3)cs2)cc1,0.817% (inactive)
7,Clc1ccc(-c2n[nH]c3c2CCC3)cc1Cl,-54.5% (inactive)
8,O=S(=O)(NCCc1csc(-c2cccnc2)n1)c1ccc(Cl)s1,-65.2% (inactive)
9,CC1CCc2c(C(=O)Nc3ccccn3)csc2C1 (stereo not given),-95.2% (inactive)
10,CCOC(=O)c1c(C)[nH]c2c1-c1ccccc1C(=O)C2=O,-17.4% (inactive)
11,Cc1ccccc1CN(C)CCS(=O)(=O)c1cc(Cl)ccc1Cl,-67.7% (inactive)
12,CCCCOC(=O)/C=C/c1ccc(OC(=O)OC)c(OC(=O)OC)c1,-13.9% (inactive)
13,S=C(NC1CCCC1)N1CCN(c2cccc(Cl)c2)CC1,13.6% (inactive)
14,CC(=O)Nc1cccc(-c2cc(-c3c(Cl)cccc3Cl)no2)c1,-92.6% (inactive)
15,CC1=CC(C)(C)N(S(=O)(=O)c2ccc(C)cc2)c2ccc(C)cc21,-55.9% (inactive)
16,Cn1c(-c2ccccc2)cnc1NCc1ccc(-c2ccccc2)cc1,-67.3% (inactive)
17,CCCOc1ccc(CSCCNC(=S)Nc2ccccc2)cc1,22% (inactive)
18,CCCS(=O)(=O)c1c(S(=O)(=O)CCC)c2c(C)cccn2c1C(=O)N/N=C/c1cc(O)cc(O)c1,22.5% (inactive)
19,Cc1cc(/C=C2\SC(=S)N(C)C2=O)c(C)n1-c1ccc(O)cc1,-39.6% (inactive)
20,CC[n+]1c(/C=C/C=C/c2ccc(N(C)C)cc2)sc2ccccc21,-38.5% (inactive)
21,Clc1ccc(C(Cn2ccnc2)OCc2c(Cl)cccc2Cl)c(Cl)c1 (stereo not given),-69.1% (inactive)
